Test results as given in patent US11696913B2, “Prolonged ectoparasite-controlling agent for animal” (MITSUI CHEMICALS AGRO, INC., priority 2017, dated 2023).

Legend:
Ctenocephalides felis [1] = assay: In vitro contact test with fleas; settings: read-out: insecticidal activity; for pest or weed control at 0.04 µg/cm2, 0.04 µg/cm2: dose 0.04 μg/cm^2, dead or moribund fleas after 48 h; for pest or weed control at 0.2 µg/cm2, 0.2 µg/cm2: dose 0.2 μg/cm^2, dead or moribund fleas after 48 h; for pest or weed control at 1 µg/cm2, 1 µg/cm2: dose 1 μg/cm^2, dead or moribund fleas after 48 h
Summary of the method: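 Adult male and female cat fleas (5-10 per tube) placed in glass tubes coated with compound from acetone solution (900 ppm gives 5 μg/cm^2), kept at room temperature and ambient humidity. After 48 h, motionless or uncoordinated fleas scored dead or moribund; activity expressed as % dead or moribund.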

Ixodes ricinus = assay: In vitro contact test with adult hard ticks (Ixodes ricinus); settings: read-out: acaricidal activity; for pest or weed control at 0.2 µg/cm2, 0.2 µg/cm2: dose 0.2 μg/cm^2, 48 h; for pest or weed control at 1 µg/cm2, 1 µg/cm2: dose 1 μg/cm^2, 48 h; for pest or weed control at 5 µg/cm2, 5 µg/cm2: dose 5 μg/cm^2, 48 h
Summary of the method: (§1)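 Adult R. sanguineus, I. ricinus, D. variabilis or A. americanum nymphs exposed in glass vials coated with compound from acetone (900 ppm gives 5 μg/cm^2). Held 48 h at room temperature (R. sanguineus) or 21° C., 85% rel. hum.; then heated at 45-50° C. ≤5 min, motionless or uncoordinated ticks scored dead/moribund.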

Rhipicephalus sanguineus = assay: In vitro contact test with adult hard ticks (Rhipicephalus sanguineus); settings: read-out: acaricidal activity; for pest or weed control at 1 µg/cm2, 1 µg/cm2: dose 1 μg/cm^2, 48 h; for pest or weed control at 0.2 µg/cm2, 0.2 µg/cm2: dose 0.2 μg/cm^2, 48 h; for pest or weed control at 0.04 µg/cm2, 0.04 µg/cm2: dose 0.04 μg/cm^2, 48 h
Summary of the method: as §1

Ctenocephalides felis [2] = assay: Topical treatment in-vivo test with cat flea on rats; settings: topical spot-on
Experimental: (§2) Topical Treatment In-Vivo Test with American Dog Tick Nymph and Cat Flea on Rats
(§3) Type of study and overall study design: The method is a randomized non-blinded efficacy study in accordance with European animal welfare requirements. Rats (Rattus norvegicus) were randomized based on pre-treatment flea counts. The efficacy of treatment was determined by comparison of the flea and tick counts of different treatment groups versus the placebo-treated control group. The experimental unit was the individual study animal.
(§4) Method and route of administration: The compound was applied in a suitable solvent and carrier (more specifically, added to the following mixture: 33.3% by weight propylene carbonate, […] N-methylpyrrolidone, 0.1% by weight BHA, 0.05% by weight BHT) considering the individual body weight as topical spot-on between the shoulder blades directly onto the skin.
(§5) Experimental infestation: On the day of treatment and weekly thereafter, 30 ticks (D. variabilis nymphs) were released onto the back of each rat, and 30 fleas (C. felis) were released onto the back of each rat 24 h later.
(§6) Tick and Flea counting: Rats were thoroughly examined and ticks and fleas were manually removed 48 h (+4 h) after tick infestation and 24 h after flea infestation. Live fleas and live attached engorged ticks were counted. In non-evident cases, engorgement status was evaluated by squeezing the tick on a filter paper to find traces of blood as sign for engorgement.

Spodoptera litura = assay: Insecticidal testing against common cutworm; assay type: in vivo; settings: foliar, 144 h, concentration 100 ppm, cabbage leaf dip, second-stage larvae, after 6 days, read-out: pesticidal rate
Description: Insecticidal Testing Against Common Cutworm (Spodoptera litura)

Dermacentor variabilis = assay: Topical treatment in-vivo test with American dog tick nymph on rats; settings: topical spot-on, 25 mg/kg
Experimental: as §2, §3, §4, §5, §6

CN(C(=O)c1ccc(F)cc1)c1cccc(C(=O)Nc2c(I)cc(C(F)(C(F)(F)F)C(F)(F)F)cc2C(F)(F)F)c1F [Compound 24]
pest or weed control at 0.04 µg/cm2, 0.04 µg/cm2 (Ctenocephalides felis [1]): 95%
pest or weed control at 0.2 µg/cm2, 0.2 µg/cm2 (Ctenocephalides felis [1]): 95%
pest or weed control at 1 µg/cm2, 1 µg/cm2 (Ctenocephalides felis [1]): 95%
pest or weed control at 0.2 µg/cm2, 0.2 µg/cm2 (Ixodes ricinus): 90%
pest or weed control at 1 µg/cm2, 1 µg/cm2 (Ixodes ricinus): 90%
pest or weed control at 5 µg/cm2, 5 µg/cm2 (Ixodes ricinus): 90%
pest or weed control at 1 µg/cm2, 1 µg/cm2 (Rhipicephalus sanguineus): 90%
Geometric mean percent reduction in live flea (Ctenocephalides felis) counts compared to untreated control rats (Ctenocephalides felis [2]; 10 mg/kg, SD 2): 100%
Geometric mean percent reduction in live flea (Ctenocephalides felis) counts compared to untreated control rats (Ctenocephalides felis [2]; 10 mg/kg, SD 9): 99%
Geometric mean percent reduction in live flea (Ctenocephalides felis) counts compared to untreated control rats (Ctenocephalides felis [2]; 10 mg/kg, SD 16): 97%
Geometric mean percent reduction in live flea (Ctenocephalides felis) counts compared to untreated control rats (Ctenocephalides felis [2]; 10 mg/kg, SD 23): 96%
Geometric mean percent reduction in live flea (Ctenocephalides felis) counts compared to untreated control rats (Ctenocephalides felis [2]; 10 mg/kg, SD 30): 77%

CN(C(=O)c1ccc(C(F)(F)F)nc1)c1cccc(C(=O)Nc2c(I)cc(C(F)(C(F)(F)F)C(F)(F)F)cc2C(F)(F)F)c1F [Compound 66, N-(2-fluoro-3-((2-iodo-4-(perfluoropropan-2-yl)-6-(trifluoromethyl)phenyl)carbamoyl)phenyl)-N-methyl-6-(trifluoromethyl)nicotinamide]
pest or weed control at 0.2 µg/cm2, 0.2 µg/cm2 (Ctenocephalides felis [1]): 95%
pest or weed control at 1 µg/cm2, 1 µg/cm2 (Ctenocephalides felis [1]): 95%
pest or weed control at 0.2 µg/cm2, 0.2 µg/cm2 (Rhipicephalus sanguineus): 90%
pest or weed control at 1 µg/cm2, 1 µg/cm2 (Rhipicephalus sanguineus): 90%
pest or weed control at 100 ppm (Spodoptera litura): ≥ 70%

CN(C(=O)c1ccc(F)cc1)c1cccc(C(=O)Nc2c(I)cc(C(F)(C(F)(F)F)C(F)(F)C(F)(F)F)cc2C(F)(F)F)c1F (stereo not drawn) [Compound 37]
pest or weed control at 0.04 µg/cm2, 0.04 µg/cm2 (Ctenocephalides felis [1]): 95%
pest or weed control at 0.2 µg/cm2, 0.2 µg/cm2 (Ctenocephalides felis [1]): 95%
pest or weed control at 1 µg/cm2, 1 µg/cm2 (Ctenocephalides felis [1]): 95%
pest or weed control at 0.2 µg/cm2, 0.2 µg/cm2 (Rhipicephalus sanguineus): 90%
pest or weed control at 1 µg/cm2, 1 µg/cm2 (Rhipicephalus sanguineus): 90%

CN(C(=O)c1ccc(F)nc1)c1cccc(C(=O)Nc2c(I)cc(C(F)(C(F)(F)F)C(F)(F)F)cc2C(F)(F)F)c1F [Compound 115, 6-fluoro-N-(2-fluoro-3-((2-iodo-4-(perfluoropropan-2-yl)-6-(trifluoromethyl)phenyl)carbamoyl)phenyl)-N-methylnicotinamide]
pest or weed control at 0.04 µg/cm2, 0.04 µg/cm2 (Ctenocephalides felis [1]): 95%
pest or weed control at 0.2 µg/cm2, 0.2 µg/cm2 (Ctenocephalides felis [1]): 95%
pest or weed control at 1 µg/cm2, 1 µg/cm2 (Ctenocephalides felis [1]): 95%
pest or weed control at 5 µg/cm2, 5 µg/cm2 (Ixodes ricinus): 90%
pest or weed control at 0.04 µg/cm2, 0.04 µg/cm2 (Rhipicephalus sanguineus): 90%
pest or weed control at 0.2 µg/cm2, 0.2 µg/cm2 (Rhipicephalus sanguineus): 90%
pest or weed control at 1 µg/cm2, 1 µg/cm2 (Rhipicephalus sanguineus): 90%
pest or weed control at 100 ppm (Spodoptera litura): ≥ 70%

CN(C(=O)c1ccc(F)c(F)c1)c1cccc(C(=O)Nc2c(I)cc(C(F)(C(F)(F)F)C(F)(F)F)cc2C(F)(F)F)c1F [Compound 51]
pest or weed control at 0.04 µg/cm2, 0.04 µg/cm2 (Ctenocephalides felis [1]): 95%
pest or weed control at 0.2 µg/cm2, 0.2 µg/cm2 (Ctenocephalides felis [1]): 95%
pest or weed control at 1 µg/cm2, 1 µg/cm2 (Ctenocephalides felis [1]): 95%
pest or weed control at 0.2 µg/cm2, 0.2 µg/cm2 (Rhipicephalus sanguineus): 90%
pest or weed control at 1 µg/cm2, 1 µg/cm2 (Rhipicephalus sanguineus): 90%
Geometric mean percent reduction in live tick (Dermacentor variabilis) counts compared to untreated control rats (Dermacentor variabilis; SD 2): 82%
Geometric mean percent reduction in live tick (Dermacentor variabilis) counts compared to untreated control rats (Dermacentor variabilis; SD 9): 95%
Geometric mean percent reduction in live tick (Dermacentor variabilis) counts compared to untreated control rats (Dermacentor variabilis; SD 16): 80%
Geometric mean percent reduction in live tick (Dermacentor variabilis) counts compared to untreated control rats (Dermacentor variabilis; SD 23): 73%
Geometric mean percent reduction in live tick (Dermacentor variabilis) counts compared to untreated control rats (Dermacentor variabilis; SD 30): 55%
Geometric mean percent reduction in live flea (Ctenocephalides felis) counts compared to untreated control rats (Ctenocephalides felis [2]; 25 mg/kg, SD 2): 100%
Geometric mean percent reduction in live flea (Ctenocephalides felis) counts compared to untreated control rats (Ctenocephalides felis [2]; 25 mg/kg, SD 9): 98%
Geometric mean percent reduction in live flea (Ctenocephalides felis) counts compared to untreated control rats (Ctenocephalides felis [2]; 25 mg/kg, SD 16): 91%
Geometric mean percent reduction in live flea (Ctenocephalides felis) counts compared to untreated control rats (Ctenocephalides felis [2]; 25 mg/kg, SD 23): 95%
Geometric mean percent reduction in live flea (Ctenocephalides felis) counts compared to untreated control rats (Ctenocephalides felis [2]; 25 mg/kg, SD 30): 93%
pest or weed control at 100 ppm (Spodoptera litura): ≥ 70%

CN(C(=O)c1ccc(F)cc1)c1cccc(C(=O)Nc2c(I)cc(C(F)(C(F)(F)F)C(F)(F)F)cc2OC(F)(F)F)c1F [Compound 74]
pest or weed control at 0.04 µg/cm2, 0.04 µg/cm2 (Ctenocephalides felis [1]): 95%
pest or weed control at 0.2 µg/cm2, 0.2 µg/cm2 (Ctenocephalides felis [1]): 95%
pest or weed control at 1 µg/cm2, 1 µg/cm2 (Ctenocephalides felis [1]): 95%
pest or weed control at 1 µg/cm2, 1 µg/cm2 (Ixodes ricinus): 90%
pest or weed control at 5 µg/cm2, 5 µg/cm2 (Ixodes ricinus): 90%
pest or weed control at 0.04 µg/cm2, 0.04 µg/cm2 (Rhipicephalus sanguineus): 90%
pest or weed control at 0.2 µg/cm2, 0.2 µg/cm2 (Rhipicephalus sanguineus): 90%
pest or weed control at 1 µg/cm2, 1 µg/cm2 (Rhipicephalus sanguineus): 90%
pest or weed control at 100 ppm (Spodoptera litura): ≥ 70%

CN(C(=O)c1ccc(C(F)(F)F)nc1)c1cccc(C(=O)Nc2c(I)cc(C(F)(C(F)(F)F)C(F)(F)C(F)(F)F)cc2C(F)(F)F)c1F (stereo not drawn) [Compound 119]
pest or weed control at 0.04 µg/cm2, 0.04 µg/cm2 (Ctenocephalides felis [1]): 95%
pest or weed control at 0.2 µg/cm2, 0.2 µg/cm2 (Ctenocephalides felis [1]): 95%
pest or weed control at 1 µg/cm2, 1 µg/cm2 (Ctenocephalides felis [1]): 95%
pest or weed control at 100 ppm (Spodoptera litura): ≥ 70%

CN(C(=O)c1ccc(F)cc1)c1cccc(C(=O)Nc2c(I)cc(C(F)(C(F)(F)F)C(F)(F)C(F)(F)F)cc2OC(F)F)c1F (stereo not drawn) [Compound 103]
pest or weed control at 0.04 µg/cm2, 0.04 µg/cm2 (Ctenocephalides felis [1]): 95%
pest or weed control at 0.2 µg/cm2, 0.2 µg/cm2 (Ctenocephalides felis [1]): 95%
pest or weed control at 1 µg/cm2, 1 µg/cm2 (Ctenocephalides felis [1]): 95%
pest or weed control at 0.2 µg/cm2, 0.2 µg/cm2 (Ixodes ricinus): 90%
pest or weed control at 5 µg/cm2, 5 µg/cm2 (Ixodes ricinus): 90%
pest or weed control at 0.2 µg/cm2, 0.2 µg/cm2 (Rhipicephalus sanguineus): 90%
pest or weed control at 1 µg/cm2, 1 µg/cm2 (Rhipicephalus sanguineus): 90%
pest or weed control at 100 ppm (Spodoptera litura): ≥ 70%

O=C(Nc1cccc(C(=O)Nc2c(I)cc(C(F)(C(F)(F)F)C(F)(F)F)cc2C(F)(F)F)c1F)c1ccc(C(F)(F)F)nc1 [Compound 67, N-(2-fluoro-3-((2-iodo-4-(perfluoropropan-2-yl)-6-(trifluoromethyl)phenyl)carbamoyl)phenyl)-6-(trifluoromethyl)nicotinamide]
pest or weed control at 0.04 µg/cm2, 0.04 µg/cm2 (Ctenocephalides felis [1]): 95%
pest or weed control at 0.2 µg/cm2, 0.2 µg/cm2 (Ctenocephalides felis [1]): 95%
pest or weed control at 1 µg/cm2, 1 µg/cm2 (Ctenocephalides felis [1]): 95%
pest or weed control at 0.2 µg/cm2, 0.2 µg/cm2 (Ixodes ricinus): 90%
pest or weed control at 1 µg/cm2, 1 µg/cm2 (Ixodes ricinus): 90%
pest or weed control at 5 µg/cm2, 5 µg/cm2 (Ixodes ricinus): 90%
pest or weed control at 0.04 µg/cm2, 0.04 µg/cm2 (Rhipicephalus sanguineus): 90%
pest or weed control at 0.2 µg/cm2, 0.2 µg/cm2 (Rhipicephalus sanguineus): 90%
pest or weed control at 1 µg/cm2, 1 µg/cm2 (Rhipicephalus sanguineus): 90%
Geometric mean percent reduction in live tick (Dermacentor variabilis) counts compared to untreated control rats (Dermacentor variabilis; SD 2): 57%
Geometric mean percent reduction in live tick (Dermacentor variabilis) counts compared to untreated control rats (Dermacentor variabilis; SD 9): 98%
Geometric mean percent reduction in live tick (Dermacentor variabilis) counts compared to untreated control rats (Dermacentor variabilis; SD 16): 100%
Geometric mean percent reduction in live tick (Dermacentor variabilis) counts compared to untreated control rats (Dermacentor variabilis; SD 23): 100%
Geometric mean percent reduction in live tick (Dermacentor variabilis) counts compared to untreated control rats (Dermacentor variabilis; SD 30): 77%
Geometric mean percent reduction in live flea (Ctenocephalides felis) counts compared to untreated control rats (Ctenocephalides felis [2]; 25 mg/kg, SD 2): 98%
Geometric mean percent reduction in live flea (Ctenocephalides felis) counts compared to untreated control rats (Ctenocephalides felis [2]; 25 mg/kg, SD 9): 93%
Geometric mean percent reduction in live flea (Ctenocephalides felis) counts compared to untreated control rats (Ctenocephalides felis [2]; 25 mg/kg, SD 16): 97%
Geometric mean percent reduction in live flea (Ctenocephalides felis) counts compared to untreated control rats (Ctenocephalides felis [2]; 25 mg/kg, SD 23): 81%
Geometric mean percent reduction in live flea (Ctenocephalides felis) counts compared to untreated control rats (Ctenocephalides felis [2]; 25 mg/kg, SD 30): 79%
pest or weed control at 100 ppm (Spodoptera litura): ≥ 70%
